Test results as given in patent US11091447B2, “UBE2K modulators and methods for their use” (Berg LLC, priority 2020, dated 2021).

system: MIA PaCa-2 cells; assay: Cellular viability assay (Cell Titer Fluor); type: cell-based; settings: 72 hours incubation
Description: Cell viability were performed using the Cell Titer Fluor™ Assays (Promega G6080). MIA PaCa-2 cells are grown in DMEM media with 10% FBS, 1% Pen/Strep/Amphotericin B. Cells are trypsinized and counted using the Nexcelom cellometer. 5,000 cells/100 μl are plated per well in Greiner black/clear 96-well plates. Cells should be within 10 passages of stock vial for use in workflow. Three distinct lineages of these cells are cultured in parallel for multiple passages and 5 full plates of each lineage are seeded for one run. Small molecule compounds are provided as 100 mM stock solutions in DMSO. Dilution series plates are prepared using 1:3 dilution to achieve a 7 point concentration on a half log scale. After addition of compounds, cells are incubated 37° C., 5% CO2 for 72 hours.
For each test compound condition, triplicate technical replicates are used. For each reference compound, duplicate technical replicates are used. At the end of the 72-hour incubation, spent media is discarded. Then, 100 μl of GF-AFC diluted in DMEM (serum and phenol red-free) is added at 1:2000 concentration (5 μl/10 ml). Cells are incubated with reaction buffer for 1 h at 37° C. Fluorescence is then read on the plate reader with excitation wavelength of 390 nm and emission wavelength of 505 nm. All raw data are analyzed on Microsoft Excel 2010 and normalized to the DMSO vehicle control. Relative results are copied into GraphPad Prism for non-linear regression analysis and determination of IC50 and other dose curve parameters (min, max, Hill slope, etc.) using the log (inhibitor) vs. response equation. Values are as follows: A represents an IC50 of <[…], B represents an IC50 of 1 mM to 10 mM, C represents an IC50 of >10 mM.

| SMILES | IC50 [µM] |
| --- | --- |
| O=C(NCc1cc(-c2cc(F)ccc2O)[nH]n1)c1ccccc1OC(F)(F)F [Compound 52] | > 10 |

same assay, conditions: Homo sapiens, MIA PaCa-2, 72 h, 72 hours incubation

| SMILES | IC50 [µM] |
| --- | --- |
| COc1ccc(F)cc1-c1nc(CNC(=O)c2cc(F)ccc2OC(F)F)n[nH]1 [Comp 137] | < 1 |
| O=C(NCc1cc(-c2cccs2)[nH]n1)c1ccccc1OC(F)F [Compound 4] | > 10 |
| O=C(NCc1cc(-c2cccs2)[nH]n1)c1ccccc1OC(F)(F)F [Compound 5] | > 10 |
| O=C(NCc1n[nH]c(-c2cccs2)n1)c1ccccc1CC(F)(F)F [Compound 8] | > 10 |
| O=C(NCc1cc(-c2cccs2)[nH]n1)c1ccc(O)cc1C(F)(F)F [Compound 13] | > 10 |
| O=C(NCc1n[nH]c(-c2cccs2)n1)c1ccccc1OC(F)(F)F [Compound 14] | > 10 |
| O=C(NCc1n[nH]c(-c2cccs2)n1)c1ccccc1OC(F)F [Compound 15] | > 10 |
| Cc1cscc1-c1cc(CNC(=O)c2ccccc2OC(F)(F)F)n[nH]1 [Compound 16, N-((5-(4-methylthiophen-3-yl)-1H-pyrazol-3-yl)methyl)-2-(trifluoromethoxy) benzamide] | > 10 |
| Cc1sccc1-c1cc(CNC(=O)c2ccccc2OC(F)(F)F)n[nH]1 [Compound 17] | > 10 |
| COc1ccc(C(F)(F)F)cc1-c1cc(CNC(=O)c2ccccc2OC(F)(F)F)n[nH]1 [Compound 20] | > 10 |
| O=C(NCc1cc(-c2csc(Cl)c2)[nH]n1)c1ccccc1OC(F)(F)F [Compound 21] | > 10 |
| O=C(NCc1cc(-c2ccsc2Cl)[nH]n1)c1ccccc1OC(F)(F)F [Compound 22] | > 10 |
| Cc1cn[nH]c1-c1cc(CNC(=O)c2ccccc2OC(F)(F)F)n[nH]1 [Compound 24] | > 10 |
| O=C(NCc1cc(-c2ccn[nH]2)[nH]n1)c1ccccc1OC(F)(F)F [Compound 25] | > 10 |
| COc1ncccc1-c1cc(CNC(=O)c2ccccc2OC(F)(F)F)n[nH]1 [Compound 27] | > 10 |
| O=C(NCc1cc(-c2cccnc2O)[nH]n1)c1ccccc1OC(F)(F)F [Compound 28] | > 10 |
| O=C(NCc1cc(-c2cccc3cn[nH]c23)[nH]n1)c1ccccc1OC(F)(F)F [Compound 29] | > 10 |
| CN(C)c1ccccc1-c1cc(CNC(=O)c2ccccc2OC(F)(F)F)n[nH]1 [Compound 30] | > 10 |
| COc1ccccc1-c1cc(CNC(=O)c2ccccc2OC(F)(F)F)n[nH]1 [Compound 31] | < 1 |
| COc1ccncc1-c1cc(CNC(=O)c2ccccc2OC(F)(F)F)n[nH]1 [Compound 33] | 1 to 10 |
| COc1cccnc1-c1nc(CNC(=O)c2ccccc2OC(F)(F)F)n[nH]1 [Compound 34, N-((5-(3-methoxypyridin-2-yl)-1H-1,2,4-triazol-3-yl)methyl)-2-(trifluoromethoxy)benzamide] | 1 to 10 |
| COc1ccncc1-c1nc(CNC(=O)c2ccccc2OC(F)(F)F)n[nH]1 [Compound 35] | 1 to 10 |
| COc1ccsc1-c1cc(CNC(=O)c2ccccc2OC(F)(F)F)n[nH]1 [Compound 36] | < 1 |
| COc1cnccc1-c1cc(CNC(=O)c2ccccc2OC(F)(F)F)n[nH]1 [Compound 37] | > 10 |
| COc1ccc(OC)c(-c2cc(CNC(=O)c3ccccc3OC(F)(F)F)n[nH]2)c1 [Compound 39] | > 10 |
| O=C(NCc1cc(-c2cc(O)ccc2O)[nH]n1)c1ccccc1OC(F)(F)F [Compound 40, N-((5-(2,5-dihydroxyphenyl)-1H-pyrazol-3-yl)methyl)-2-(trifluoromethoxy) benzamide] | > 10 |
| O=C(NCc1cc(-c2cccc(O)c2O)[nH]n1)c1ccccc1OC(F)(F)F [Compound 43] | > 10 |

| SMILES | IC50 [µM] |
| --- | --- |
| CCOc1ccc(F)cc1-c1cc(CNC(=O)c2ccccc2OC(F)(F)F)n[nH]1 [Compound 44] | 1 to 10 |
| CCOc1ccc(Cl)cc1-c1cc(CNC(=O)c2ccccc2OC(F)F)n[nH]1 [Compound 47] | > 10 |
| COc1ccc(Cl)cc1-c1cc(CNC(=O)c2ccccc2OC(F)(F)F)n[nH]1 [Compound 48] | 1 to 10 |
| COc1c(F)cc(F)cc1-c1cc(CNC(=O)c2ccccc2OC(F)(F)F)n[nH]1 [Compound 49] | 1 to 10 |
| O=C(NCc1cc(-c2cc(F)cc(F)c2O)[nH]n1)c1ccccc1OC(F)(F)F [Compound 50] | > 10 |
| COc1ccc(F)cc1-c1cc(CNC(=O)c2ccccc2OC(F)(F)F)n[nH]1 [Compound 51] | < 1 |
| O=C(NCc1cc(-c2ccccc2O)[nH]n1)c1ccccc1OC(F)(F)F [Compound 53] | < 1 |
| CCOc1ccccc1-c1nc(CNC(=O)c2ccccc2OC(F)(F)F)n[nH]1 [Compound 57] | < 1 |
| CCOc1ccccc1-c1nc(CNC(=O)c2ccccc2OC(F)F)n[nH]1 [Compound 58] | < 1 |
| CCOc1ccc(Br)cc1-c1nc(CNC(=O)c2ccccc2OC(F)F)n[nH]1 [Compound 59] | > 10 |
| O=C(NCc1n[nH]c(-c2ccccc2O)n1)c1ccccc1OC(F)F [Compound 60, 2-(Difluoromethoxy)-N-((5-(2-hydroxyphenyl)-1H-1,2,4-triazol-3-yl)methyl) benzamide] | < 1 |
| O=C(NCc1n[nH]c(-c2cccc(O)c2O)n1)c1ccccc1OC(F)F [Compound 61, 2-(Difluoromethoxy)-N-((5-(2,3-dihydroxyphenyl)-1H-1,2,4-triazol-3-yl)methyl) benzamide] | 1 to 10 |
| COc1c(O)cccc1-c1nc(CNC(=O)c2ccccc2OC(F)F)n[nH]1 [Compound 62, 2-(difluoromethoxy)-N-((5-(3-hydroxy-2-methoxyphenyl)-1H-1,2,4-triazol-3-yl)methyl) benzamide] | 1 to 10 |
| COc1ccc(O)cc1-c1nc(CNC(=O)c2ccccc2OC(F)F)n[nH]1 [Compound 63, 2-(Difluoromethoxy)-N-((5-(5-hydroxy-2-methoxyphenyl)-1H-1,2,4-triazol-3-yl)methyl) benzamide] | 1 to 10 |
| O=C(NCc1n[nH]c(-c2cc(O)ccc2O)n1)c1ccccc1OC(F)F [Compound 64] | 1 to 10 |
| O=C(NCc1cc(-c2cccs2)[nH]n1)c1ccccc1N1CCC(F)(F)CC1 [Compound 65] | < 1 |
| O=C(NCc1cc(-c2cccs2)[nH]n1)c1ccccc1N1CCC(F)(F)C1 [Compound 66] | < 1 |
| O=C(NCc1cc(-c2cccs2)[nH]n1)c1ccccc1N1CCCCC1 [Compound 68] | < 1 |
| O=C(NCc1cc(-c2cccs2)[nH]n1)c1ccccc1N1CCOCC1 [Compound 69] | < 1 |
| O=C(NCc1cc(-c2cccs2)[nH]n1)c1ccccc1N1CCS(=O)(=O)CC1 [Compound 70] | > 10 |
| CN1CCN(c2ccccc2C(=O)NCc2cc(-c3cccs3)[nH]n2)CC1 [Compound 71] | 1 to 10 |
| O=C(NCc1cc(-c2cccs2)[nH]n1)c1ccccc1N1CCCC1 [Compound 72] | < 1 |
| O=C(NCc1n[nH]c(-c2cccs2)n1)c1ccccc1NCC(F)F [Compound 73] | > 10 |
| O=C(NCc1n[nH]c(-c2cccs2)n1)c1ccccc1N1CC(F)(F)C1 [Compound 74] | > 10 |
| O=C(NCc1n[nH]c(-c2cccs2)n1)c1ccccc1N1CCC(F)(F)C1 [Compound 75] | < 1 |
| O=C(NCc1n[nH]c(-c2cccs2)n1)c1ccccc1N1CCC(F)(F)CC1 [Compound 76, 2-(4,4-difluoropiperidin-1-yl)-N-((5-(thiophen-2-yl)-1H-1,2,4-triazol-3-yl)methyl) benzamide] | 1 to 10 |
